We go through 27 molecules from patent US11078193B2 (priority 2014, dated 2021).

A value given as a limit tells only on which side of the number the result lay.

A word on the EC50: it is the concentration needed to bring the measured effect to its halfway point. A higher EC50 goes with a need for much substance. A word on the CC50: it is the concentration at which the toxic effect on the cells reaches its halfway point. Lower therefore signals greater toxicity to the cells.

Holding throughout (type): cell-based
For data set [1], the system named is HBV. Briefly: anti-HBV activity, HepG2.2.15 stable transfected cell line, HBV DNA from secreted virions by realtime PCR. The note with it: Hepatitis B virus, 144 h, HepG2.2.15 cells, 6 days of treatment.
Data set [2] deals with HBV. Put plainly: anti HBV activity, HepG2.117 inducibly HBV producing cell line (Tet-off), intracellular HBV DNA by realtime PCR. The note with it: Hepatitis B virus, 72 h, HepG2.117 cells, 3 days of treatment.
Data set [3] is described as follows: Cytotoxicity, HepG2 cells, Resazurin assay. The note with it: human. On the technique in general: Resazurin is reduced to fluorescent resorufin, in cell work by metabolically active cells.

With `C[C@@H](NS(=O)(=O)c1cn(C)c(C(=O)Nc2cnc(F)c(Br)c2)c1Cl)C(F)(F)F` [Compound 34, N-(5-bromo-6-fluoro-3-pyridyl)-3-chloro-1-methyl-4-[[(1R)-2,2,2-trifluoro-1-methyl-ethyl]sulfamoyl]pyrrole-2-carboxamide], the EC50 with HBV [1] was 50 nM; in the data set with HBV [2] it was 100 nM. Besides, the CC50 at 4 days in data set [3] was over 25000 nM.

Turning to `Cn1cc(S(=O)(=O)NC2(C)CC(F)(F)C2)c(Cl)c1C(=O)Nc1ccnc(F)c1` [Compound 116, 3-chloro-4-[(3,3-difluoro-1-methyl-cyclobutyl)sulfamoyl]-N-(2-fluoro-4-pyridyl)-1-methyl-pyrrole-2-carboxamide], the EC50 in the data set on HBV [1] amounted to 210 nM; in the data set with HBV [2], 20 nM. For the same molecule, the 50% cytotoxic concentration (CC50) at 4 days in data set [3] was over 25000 nM.

`CC[C@H](NS(=O)(=O)c1cn(C)c(C(=O)Nc2ccnc(C#N)c2)c1Cl)C(F)(F)F` [Compound 37, 3-chloro-N-(2-cyano-4-pyridyl)-1-methyl-4-[[(1S)-1-(trifluoromethyl)-propyl]sulfamoyl]pyrrole-2-carboxamide]: the half-maximal effective concentration (EC50) was found to be 150 nM in the data set with HBV [1] and 200 nM in the data set with HBV [2]. Also, in data set [3], the CC50 at 4 days is over 25000 nM.

As for `Cn1cc(S(=O)(=O)NC2(C)COC2)cc1C(=O)Nc1cccc(C(F)(F)F)n1` [Compound 5, 1-Methyl-4-[(3-methyloxetan-3-yl)sulfamoyl]-N-[6-(trifluoromethyl)pyridin-2-yl]-1H-pyrrole-2-carboxamide], the figures for the EC50 in the data set with HBV [1] and in the data set with HBV [2] were 920 nM and 3110 nM, respectively. This molecule had a CC50 at 4 days in data set [3] of over 25000 nM.

As for `Cn1cc(S(=O)(=O)NC2(C)CC(F)(F)C2)c(Cl)c1C(=O)Nc1ccnc(C#N)c1` [Compound 64, 3-chloro-N-(2-cyano-4-pyridyl)-4-[(3,3-difluoro-1-methyl-cyclobutyl)-sulfamoyl]-1-methyl-pyrrole-2-carboxamide], the results for the EC50 in the data set with HBV [1] and in the data set with HBV [2] were 20 nM and 30 nM, respectively. In addition, the CC50 at 4 days in data set [3] worked out at 23000 nM.

As to `CC(C)NS(=O)(=O)c1cn(C)c(C(=O)Nc2ccnc(C(F)F)c2)c1F` [Compound 82, N-[2-(difluoromethyl)-4-pyridyl]-3-fluoro-4-(isopropylsulfamoyl)-1-methyl-pyrrole-2-carboxamide], the EC50 in the data set with HBV [1] is 70 nM; with HBV [2], 100 nM. Moreover, the CC50 at 4 days in data set [3] is over 25000 nM.

In the case of `Cn1cc(S(=O)(=O)NC2(C)COC2)cc1C(=O)Nc1ccnc(C#N)c1` [Compound 1, N-(2-Cyanopyridin-4-yl)-1-methyl-4-[(3-methyloxetan-3-yl)sulfamoyl]-1H-pyrrole-2-carboxamide], the EC50 with HBV [1] was determined as 860 nM; with HBV [2] it was 650 nM. Further, the CC50 at 4 days in data set [3] was over 25000 nM.

With `Cc1cc(NC(=O)c2c(Cl)c(S(=O)(=O)N[C@H](C)C(F)(F)F)cn2C)cc(C#N)n1` [Compound 36, 3-chloro-N-(2-cyano-6-methyl-4-pyridyl)-1-methyl-4-[[(1R)-2,2,2-trifluoro-1-methyl-ethyl]sulfamoyl]pyrrole-2-carboxamide], the EC50 in the data set with HBV [2] amounted to 150 nM. Also, in data set [3], the CC50 at 4 days was over 25000 nM.

Turning to `C[C@@H](NS(=O)(=O)c1cn(C)c(C(=O)Nc2ccnc(C(C)(F)F)c2)c1Cl)C(F)(F)F` [Compound 182, 3-chloro-N-[2-(1,1-difluoroethyl)-4-pyridyl]-1-methyl-4-[[(1R)-2,2,2-trifluoro-1-methyl-ethyl]sulfamoyl]pyrrole-2-carboxamide], a half-maximal effect with HBV [2] (EC50) was put at 1300 nM. For the same molecule, the CC50 at 4 days in data set [3] is over 25000 nM.

Consider `C[C@@H](NS(=O)(=O)c1cn(C)c(C(=O)Nc2ccnc(Cl)c2F)c1Cl)C(C)(F)F` [Compound 107, 3-chloro-N-(2-chloro-3-fluoro-4-pyridyl)-4-[[(1R)-2,2-difluoro-1-methyl-propyl]sulfamoyl]-1-methyl-pyrrole-2-carboxamide], for which the EC50 in the data set on HBV [2] was determined as 20 nM. In data set [3], this molecule returned a CC50 at 4 days of over 25000 nM.

Regarding `Cn1cc(S(=O)(=O)NC2(C(F)(F)F)CCC2)c(F)c1C(=O)Nc1ccnc(F)c1F` [Compound 170, N-(2,3-difluoro-4-pyridyl)-3-fluoro-1-methyl-4-[[1-(trifluoromethyl)cyclobutyl]sulfamoyl]pyrrole-2-carboxamide], the EC50 in the data set on HBV [2] was 40 nM. Further, the CC50 at 4 days in data set [3] was over 25000 nM.

With `CC[C@@H](C)NS(=O)(=O)c1cn(C)c(C(=O)Nc2ccnc(C(F)(F)F)c2)c1Cl` [Compound 70, 3-chloro-1-methyl-4-[[(1R)-1-methylpropyl]sulfamoyl]-N-[2-(trifluoromethyl)-4-pyridyl]pyrrole-2-carboxamide], in the data set with HBV [2], the midpoint of the response, the EC50, lay at 150 nM. In addition, the CC50 at 4 days in data set [3] is over 25000 nM.

`Cn1cc(S(=O)(=O)NC2(C(F)(F)F)CCC2)c(F)c1C(=O)Nc1ccnc(C#N)c1` [Compound 123, N-(2-cyano-4-pyridyl)-3-fluoro-1-methyl-4-[[1-(trifluoromethyl)cyclobutyl]sulfamoyl]pyrrole-2-carboxamide] registered an EC50 in the data set on HBV [2] of 10 nM. For the same molecule, the CC50 at 4 days in data set [3] was over 25000 nM.

In turn, `Cc1cc(NC(=O)c2c(Cl)c(S(=O)(=O)NC3(C)CC(F)(F)C3)cn2C)cc(F)n1` [Compound 163, 3-chloro-4-[(3,3-difluoro-1-methyl-cyclobutyl)sulfamoyl]-N-(2-fluoro-6-methyl-4-pyridyl)-1-methyl-pyrrole-2-carboxamide] gave an EC50 in the data set with HBV [2] of 20 nM. In data set [3], this molecule displayed a cytotoxic concentration (CC50) at 4 days of over 25000 nM.

Take `CC(C)NS(=O)(=O)c1cn(C)c(C(=O)Nc2ccnc(C#N)c2)c1F` [Compound 27, N-(2-cyano-4-pyridyl)-3-fluoro-4-(isopropylsulfamoyl)-1-methyl-pyrrole-2-carboxamide]: the EC50 in the data set on HBV [2] turned out to be 100 nM. In addition, the CC50 at 4 days in data set [3] was over 25000 nM.

As for `CC(C)NS(=O)(=O)c1cn(C)c(C(=O)Nc2ccnc(C(F)(F)F)c2)c1F` [Compound 78, 3-fluoro-4-(isopropylsulfamoyl)-1-methyl-N-[2-(trifluoromethyl)-4-pyridyl]pyrrole-2-carboxamide], the EC50 in the data set on HBV [2] worked out at 260 nM. The CC50 at 4 days in data set [3] was over 25000 nM.

For `C[C@@H](NS(=O)(=O)c1cn(C)c(C(=O)Nc2ccnc(C#N)c2F)c1Cl)C(C)(F)F` [Compound 151, 3-chloro-N-(2-cyano-3-fluoro-4-pyridyl)-4-[[(1R)-2,2-difluoro-1-methyl-propyl]sulfamoyl]-1-methyl-pyrrole-2-carboxamide], it took 30 nM to reach a half-maximal effect in the data set on HBV [2] (EC50). This molecule showed a CC50 at 4 days in data set [3] of over 25000 nM.

Consider `CC[C@@H](C)NS(=O)(=O)c1cn(C)c(C(=O)Nc2ccnc(C#N)c2)c1Cl` [Compound 72, 3-chloro-N-(2-cyano-4-pyridyl)-1-methyl-4-[[(1R)-1-methylpropyl]-sulfamoyl]pyrrole-2-carboxamide], for which, in the data set with HBV [2], a half-maximal effect (EC50) was put at 100 nM. The CC50 at 4 days in data set [3] is over 25000 nM.

Take `Cn1cc(S(=O)(=O)NC2(C)CC(F)(F)C2)c(F)c1C(=O)Nc1ccnc(Cl)c1` [Compound 54, N-(2-chloro-4-pyridyl)-4-[(3,3-difluoro-1-methyl-cyclobutyl)sulfamoyl]-3-fluoro-1-methyl-pyrrole-2-carboxamide]: a half-maximal response in the data set on HBV [2] (EC50) required 20 nM. The molecule also had a CC50 at 4 days in data set [3] of over 25000 nM.

Molecule `Cc1cc(NC(=O)c2c(F)c(S(=O)(=O)NC3(C(F)(F)F)CCC3)cn2C)cc(C#N)n1` [Compound 171, N-(2-cyano-6-methyl-4-pyridyl)-3-fluoro-1-methyl-4-[[1-(trifluoromethyl)cyclobutyl]sulfamoyl]pyrrole-2-carboxamide] had an EC50 with HBV [2] of 100 nM. Further, in data set [3], the CC50 at 4 days is over 25000 nM.

Molecule `C[C@@H](NS(=O)(=O)c1cn(C)c(C(=O)Nc2cc(C#N)ccn2)c1Cl)C(F)(F)F` [Compound 183, 3-chloro-N-(4-cyano-2-pyridyl)-1-methyl-4-[[(1R)-2,2,2-trifluoro-1-methyl-ethyl]sulfamoyl]pyrrole-2-carboxamide] gave an EC50 with HBV [2] of 1400 nM. This molecule registered a CC50 at 4 days in data set [3] of over 25000 nM.

In the case of `Cn1cc(S(=O)(=O)NC2(C)CC(F)(F)C2)c(F)c1C(=O)Nc1cc(Br)nc(Br)c1` [Compound 135, N-(2,6-dibromo-4-pyridyl)-4-[(3,3-difluoro-1-methyl-cyclobutyl)sulfamoyl]-3-fluoro-1-methyl-pyrrole-2-carboxamide], it took 180 nM to reach a half-maximal effect in the data set on HBV [2] (EC50). The same molecule registered a CC50 at 4 days in data set [3] of 13000 nM.

Consider `C[C@@H](NS(=O)(=O)c1cn(C)c(C(=O)Nc2ccnc(Br)c2F)c1Cl)C(C)(F)F` [Compound 148, N-(2-bromo-3-fluoro-4-pyridyl)-3-chloro-4-[[(1R)-2,2-difluoro-1-methyl-propyl]sulfamoyl]-1-methyl-pyrrole-2-carboxamide], for which, in the data set on HBV [2], the EC50 came out at 20 nM. The molecule further gave a CC50 at 4 days in data set [3] of over 25000 nM.

`CC[C@@H](C)NS(=O)(=O)c1cn(C)c(C(=O)Nc2ccnc(Cl)c2)c1Cl` [Compound 73, 3-chloro-N-(2-chloro-4-pyridyl)-1-methyl-[[(1R)-1-methylpropyl]-sulfamoyl]pyrrole-2-carboxamide]: in the data set on HBV [2], the EC50 came out at 90 nM. This molecule returned a CC50 at 4 days in data set [3] of 21600 nM.

In turn, `Cn1cc(S(=O)(=O)NC2(C(F)(F)F)CCC2)c(F)c1C(=O)Nc1cc(F)nc(F)c1` [Compound 168, N-(2,6-difluoro-4-pyridyl)-3-fluoro-1-methyl-4-[[1-(trifluoromethyl)cyclobutyl]sulfamoyl]pyrrole-2-carboxamide] displayed an EC50 in the data set on HBV [2] of 6 nM. In data set [3], the CC50 at 4 days was over 25000 nM.

Molecule `C[C@@H](NS(=O)(=O)c1cn(C)c(C(=O)Nc2c(F)c(F)nc(F)c2Cl)c1Cl)C(F)(F)F` [Compound 187, 3-chloro-N-(3-chloro-2,5,6-trifluoro-4-pyridyl)-1-methyl-4-[[(1R)-2,2,2-trifluoro-1-methyl-ethyl]sulfamoyl]pyrrole-2-carboxamide] registered an EC50 with HBV [2] of 710 nM. Moreover, the CC50 at 4 days in data set [3] was over 25000 nM.

As to `C[C@@H](NS(=O)(=O)c1cn(C)c(C(=O)Nc2cc(F)nc(F)c2F)c1Cl)C(F)(F)F` [Compound 43, 3-chloro-1-methyl-4-[[(1R)-2,2,2-trifluoro-1-methyl-ethyl]sulfamoyl]-N-(2,3,6-trifluoro-4-pyridyl)pyrrole-2-carboxamide], the concentration giving a half-maximal response (EC50) in the data set with HBV [2] stood at 80 nM. In data set [3], this molecule had a CC50 at 4 days of over 25000 nM.
